Test results from ChEMBL document CHEMBL1124317, “Rationale for the synthesis and preliminary biological evaluation of highly active new antitumor nitrosoureido sugars” (J Med Chem, 1989).

Assays:
Format in all cases: functional
Mus musculus [1] = assay: The number of Lewis lung mice survived after 30 days with compound in olive oil injected by a dose of 20 mg/kg intraperitoneally; 20/20; settings: route intraperitoneal
[2] = Ratio of mice died to that of mice treated with 20 mg/kg of compound in aqueous solution intraperitoneally with L1210 leukemia; 0/10; settings: route intraperitoneal
Mus musculus [3] = assay: Anti tumor activity in olive oil when treated to mice with L1210 leukemia with 5 mg/kg dose of compound intraperitoneally was expressed as percent of treated to control; settings: route intraperitoneal
[4] = Ratio of mice died to that of mice treated with 20 mg/kg of compound in olive oil intraperitoneally with L1210 leukemia tumor; 0/15; settings: route intraperitoneal
Mus musculus [5] = assay: The number of Lewis lung mice survived after 60 days with compound in olive oil injected by a dose of 20 mg/kg intraperitoneally; 15/20; settings: route intraperitoneal
[6] = Ratio of mice died to that of mice treated with 20 mg/kg of compound in olive oil intraperitoneally with B16 Melanocarcinoma; 0/20; settings: route intraperitoneal
Mus musculus [7] = assay: Anti tumor activity in olive oil when treated to mice with B16 melanocarcinoma with 5 mg/kg dose of compound intraperitoneally was expressed as percent of treated to control (T/C %); settings: route intraperitoneal
Mus musculus [8] = assay: The number of B16 melanocarcinoma mice survived after 60 days with compound in olive oil injected by a dose of 20 mg/kg intraperitoneally; 1/20; settings: route intraperitoneal
Mus musculus [9] = assay: Median survival time of the non surviving mice; treated with 5 mg/kg of compound in olive oil to mice with B16 Melanocarcinoma; 13-51
Mus musculus [10] = assay: The number of B16 melanocarcinoma mice survived after 30 days with compound in olive oil injected by a dose of 20 mg/kg intraperitoneally; 14/20; settings: route intraperitoneal
Mus musculus [11] = assay: The number of L1210 leukemia mice survived after 30 days with compound in aqueous solution injected by a dose of 20 mg/kg intraperitoneally; 0/10; settings: route intraperitoneal
Mus musculus [12] = assay: Median survival time of the non surviving mice; treated with 5 mg/kg of compound in olive oil to mice with L1210 leukemia and the value is mentioned in braces is range
Mus musculus [13] = assay: The number of L1210 Leukemia mice survived after 30 days with compound in olive oil injected by a dose of 20 mg/kg intraperitoneally; 15/15; settings: route intraperitoneal
[14] = Ratio of mice died to that of mice treated with 20 mg/kg of compound in olive oil intraperitoneally with Lewis lung; 0/20; settings: route intraperitoneal
Mus musculus [15] = assay: The number of L1210 Leukemia mice survived after 60 days with compound in olive oil injected by a dose of 20 mg/kg intraperitoneally; 15/15; settings: route intraperitoneal
Mus musculus [16] = assay: The number of L1210 leukemia mice survived after 60 days with compound in aqueous solution injected by a dose of 20 mg/kg intraperitoneally; 0/10; settings: route intraperitoneal
Mus musculus [17] = assay: Anti tumor activity in olive oil when treated to mice with Lewis lung with 20 mg/kg dose of compound intraperitoneally was expressed as percent of treated to control (T/C %); settings: route intraperitoneal
Mus musculus [18] = assay: Median survival time of the non surviving mice; treated with 20 mg/kg of compound in olive oil to mice with Lewis lung; 19-46
Mus musculus [19] = assay: The number of B16 melanocarcinoma mice survived after 30 days with compound in olive oil injected by a dose of 20 mg/kg intraperitoneally; 1/20; settings: route intraperitoneal
Mus musculus [20] = assay: The number of B16 melanocarcinoma mice survived after 60 days with compound in olive oil injected by a dose of 20 mg/kg intraperitoneally; 0/20; settings: route intraperitoneal
Mus musculus [21] = assay: Anti tumor activity in olive oil when treated to mice with B16 melanocarcinoma with 20 mg/kg dose of compound intraperitoneally was expressed as percent of treated to control (T/C %); settings: route intraperitoneal
Mus musculus [22] = assay: Median survival time of the non surviving mice; treated with 20 mg/kg of compound in olive oil to mice with B16 Melanocarcinoma; 20-32
Mus musculus [23] = assay: The number of Lewis lung mice survived after 60 days with compound in olive oil injected by a dose of 20 mg/kg intraperitoneally; 6/20; settings: route intraperitoneal
Mus musculus [24] = assay: The number of Lewis lung mice survived after 30 days with compound in olive oil injected by a dose of 20 mg/kg intraperitoneally; 14/20; settings: route intraperitoneal

CO[C@@H]1C[C@@H](NC(=O)N(CCCl)N=O)[C@H](O)[C@@H](C)O1
Survivals (Mus musculus [1]): 20
Ratio [2]: 0
T/C (Mus musculus [3]): 150%
Ratio [4]: 0
Survivals (Mus musculus [5]): 15
Ratio [6]: 0
T/C (Mus musculus [7]): 260%
Survivals (Mus musculus [8]): 1
Median survival time (Mus musculus [9]): 36.25
Survivals (Mus musculus [10]): 14
Survivals (Mus musculus [11]): 0
Median survival time (Mus musculus [12]): 14.2
Survivals (Mus musculus [13]): 15
Ratio [14]: 0
Survivals (Mus musculus [15]): 15
Survivals (Mus musculus [16]): 0

COC1CC(NC(=O)N(CCCl)N=O)C(OC)C(C)O1 (centres undefined)
T/C (Mus musculus [17]): 281%
Median survival time (Mus musculus [18]): 35
Survivals (Mus musculus [19]): 1
Survivals (Mus musculus [20]): 0
Ratio [4]: 0
Ratio [6]: 0
T/C (Mus musculus [21]): 170%
Survivals (Mus musculus [13]): 15
Ratio [14]: 0
Survivals (Mus musculus [15]): 15
Median survival time (Mus musculus [22]): 23.62
Survivals (Mus musculus [23]): 6
Survivals (Mus musculus [24]): 14
